Data published in US7842808B2, “Anti-migraine spirocycles” (Bristol-Myers Squibb Company, priority 2002, dated 2010).

What follows are compounds tested against T1, CGRP receptor (SK-N-MC cell membranes) (Homo sapiens, UniProt O60894+Q16602) (assay: CGRP Binding Assay ([125I]-CGRP radioligand binding, SK-N-MC homogenate)). Conditions: displacement of [125I]-CGRP, SK-N-MC homogenate; read-out: CGRP binding IC50.
T1 construct: endogenous in cells; host or cells: SK-N-MC cells (membrane homogenate)
T1 sequence (Q16602 23-461): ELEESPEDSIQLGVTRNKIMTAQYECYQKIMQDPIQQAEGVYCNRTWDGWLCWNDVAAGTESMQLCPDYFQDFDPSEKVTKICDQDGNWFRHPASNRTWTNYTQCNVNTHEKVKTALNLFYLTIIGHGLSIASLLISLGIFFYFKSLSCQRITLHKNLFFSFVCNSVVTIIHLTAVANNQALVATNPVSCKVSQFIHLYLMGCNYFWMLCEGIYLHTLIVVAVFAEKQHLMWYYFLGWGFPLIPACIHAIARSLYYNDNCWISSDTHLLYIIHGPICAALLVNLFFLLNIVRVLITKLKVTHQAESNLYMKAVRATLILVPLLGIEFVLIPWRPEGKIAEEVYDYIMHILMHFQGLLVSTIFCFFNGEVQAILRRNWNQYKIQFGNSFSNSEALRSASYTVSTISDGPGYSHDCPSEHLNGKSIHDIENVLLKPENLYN
T1 sequence (O60894 27-148): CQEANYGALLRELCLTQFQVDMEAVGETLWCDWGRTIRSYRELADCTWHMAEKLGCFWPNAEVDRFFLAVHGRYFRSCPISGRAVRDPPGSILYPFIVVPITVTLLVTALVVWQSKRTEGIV
Protocol: Tissue Culture. SK-N-MC cells were grown at 37° C. in 5% CO2 as a monolayer in medium consisting of MEM with Earle's salts and L-glutamine (Gibco) supplemented with 10% fetal bovine serum (Gibco).
Cell Pellets. […] The cells were transferred from plates to polypropylene tubes (16×100 mm) and homogenized using a polytron. Homogenates were centrifuged at 32,000×g for 30 min. The pellets were resuspended in cold hypotonic lysis buffer with 0.1% mammalian protease inhibitor cocktail (Sigma) and assayed for protein concentration. The SK-N-MC homogenate was then aliquoted and stored at −80° C. until needed.
Radioligand Binding Assay. The compounds of invention were solubilized and carried through serial dilutions using 100% DMSO. Aliquots from the compound serial dilutions were further diluted 25 fold into assay buffer (50 mM Tris-Cl pH 7.5, 5 mM MgCl2, 0.005% Triton X-100) and transferred (volume 50 μl) into 96 well assay plates. […] SK-N-MC pellets were thawed, diluted in assay buffer with fresh 0.1% mammalian protease inhibitor cocktail (Sigma), and homogenized again. SK-N-MC homogenate (5 μg/well) was added in a volume of 100 μl. The assay plates were then incubated at room temperature for 2 h. Assays were stopped by addition of excess cold wash buffer (20 mM Tris-Cl pH 7.5, 0.1% BSA) immediately followed by filtration over glass fiber filters (Whatman GF/B) previously soaked in 0.5% PEI. Non-specific binding was defined with 1 μM beta-CGRP. Protein bound radioactivity was determined using a gamma or scintillation counter.
In the case of `Cc1cc(CC(NC(=O)N2CCC(N3Cc4ccccc4NC3=O)CC2)C(=O)O[C@H](C)c2ccncc2)cc2cn[nH]c12` (stereo partly drawn) [Example 41e, 3-(7-Methyl-1H-indazol-5-yl)-2-{[4-(2-oxo-1,4-dihydro-2H-quinazolin-3-yl)-piperidine-1-carbonyl]-amino}-propionic acid (R)-1-pyridin-4-yl-ethyl ester], the IC50 is reported as under 10 nM. `Cc1cc(CC(NC(=O)N2CCC(N3Cc4ccccc4NC3=O)CC2)C(=O)O[C@@H](C)c2ccncc2)cc2cn[nH]c12` (stereo partly drawn) [Example 41f, 3-(7-Methyl-1H-indazol-5-yl)-2-{[4-(2-oxo-1,4-dihydro-2H-quinazolin-3-yl)-piperidine-1-carbonyl]-amino}-propionic acid(S)-1-pyridin-4-yl-ethyl ester] was tested, and the IC50 was 10 to 100 nM. `COC(=O)[C@@H](Cc1ccc2[nH]nnc2c1)NC(=O)N1CCC(N2Cc3ccccc3NC2=O)CC1` [Example 48, (R)-3-(1H-Benzotriazol-5-yl)-2-{[4-(2-oxo-1,4-dihydro-2H-quinazolin-3-yl)-piperidine-1-carbonyl]-amino}-propionic acid methyl ester] showed an IC50 of over 1000 nM. With `O=C(N[C@H](Cc1ccc2nn[nH]c2c1)C(=O)N1CCC(N2CCCCC2)CC1)N1CCC(N2Cc3ccccc3NC2=O)CC1` [Example 49, (R)-4-(2-Oxo-1,4-dihydro-2H-quinazolin-3-yl)-piperidine-1-carboxylic acid[1-(1H-benzotriazol-5-ylmethyl)-2-[1,4′]bipiperidinyl-1′-yl-2-oxo-ethyl]-amide] the IC50 was under 10 nM. For `O=C1Cc2cc(C[C@@H](NC(=O)N3CCC(N4Cc5ccccc5NC4=O)CC3)C(=O)N3CCC(N4CCCCC4)CC3)ccc2N1` [Example 50, (R)-4-(2-Oxo-1,4-dihydro-2H-quinazolin-3-yl)-piperidine-1-carboxylic acid[2-[1,4′]bipiperidinyl-1′-yl-2-oxo-1-(2-oxo-2,3-dihydro-1H-indol-5-ylmethyl)-ethyl]-amide], the IC50 was under 10 nM. For `CC(C)(C)OC(=O)N[C@@H](CC(=O)N1CCC(N2Cc3ccccc3NC2=O)CC1)C(=O)N1CCC(N2CCCCC2)CC1` [Example 85, (L)-{1-([1,4′]Bipiperidinyl-1′-carbonyl)-3-oxo-3-[4-(2-oxo-1,4-dihydro-2H-quinazolin-3-yl)-piperidin-1-yl]-propyl}-carbamic acid tert-butyl ester], the IC50 was 100 to 1000 nM. In the case of `Cc1nc(N[C@@H](CC(=O)N2CCC(N3Cc4ccccc4NC3=O)CC2)C(=O)N2CCC(N3CCCCC3)CC2)nc(N)c1[N+](=O)[O-]` [Example 90, (L)-2-(4-Amino-6-methyl-5-nitro-pyrimidin-2-ylamino)-1-[1,4′]bipiperidinyl-1′-yl-4-[4-(2-oxo-1,4-dihydro-2H-quinazolin-3-yl)-piperidin-1-yl]-butane-1,4-dione], the IC50 is reported as 10 to 100 nM. Work on `Cc1nc(N[C@@H](CC(=O)N2CCC(N3Cc4ccccc4NC3=O)CC2)C(=O)N2CCC(N3CCCCC3)CC2)nc(N)c1N` [Example 91, (L)-1-[1,4′]Bipiperidinyl-1′-yl-2-(4,5-diamino-6-methyl-pyrimidin-2-ylamino)-4-[4-(2-oxo-1,4-dihydro-2H-quinazolin-3-yl)-piperidin-1-yl]-butane-1,4-dione] yielded an IC50 of 100 to 1000 nM. `O=C(C[C@H](NCc1ccccn1)C(=O)N1CCC(N2CCCCC2)CC1)N1CCC(N2Cc3ccccc3NC2=O)CC1` [Example 93, (L)-1-[1,4′]Bipiperidinyl-1′-yl-2-((2′-pyridyl)-methyl-amino)-4-[4-(2-oxo-1,4-dihydro-2H-quinazolin-3-yl)-piperidin-1-yl]-butane-1,4-dione] gave an IC50 of 100 to 1000 nM. Work on `Cc1cccc(CN[C@@H](CC(=O)N2CCC(N3Cc4ccccc4NC3=O)CC2)C(=O)N2CCC(N3CCCCC3)CC2)c1` [Example 95, (L)-1-[1,4′]Bipiperidinyl-1′-yl-2-((3′-methyl-phenyll)-methyl-amino)-4-[4-(2-oxo-1,4-dihydro-2H-quinazolin-3-yl)-piperidin-1-yl]-butane-1,4-dione] yielded an IC50 of 100 to 1000 nM. `O=C(C[C@H](Nc1ccncn1)C(=O)N1CCC(N2CCCCC2)CC1)N1CCC(N2Cc3ccccc3NC2=O)CC1` [Example 96, (L)-1-[1,4′]Bipiperidinyl-1′-yl-4-[4-(2-oxo-1,4-dihydro-2H-quinazolin-3-yl)-piperidin-1-yl]-2-(pyrimidin-4-ylamino)-butane-1,4-dione] was tested, and the IC50 was over 1000 nM. `O=C(C[C@H](NC1CCC(O)CC1)C(=O)N1CCC(N2CCCCC2)CC1)N1CCC(N2Cc3ccccc3NC2=O)CC1` (stereo partly shown) [Example 97, (L)-1-[1,4′]Bipiperidinyl-1′-yl-2-(4-hydroxy-cyclohexylamino)-4-[4-(2-oxo-1,4-dihydro-2H-quinazolin-3-yl)-piperidin-1-yl]-butane-1,4-dione] gave an IC50 of over 1000 nM. `O=C(C[C@H](NCc1c[nH]cn1)C(=O)N1CCC(N2CCCCC2)CC1)N1CCC(N2Cc3ccccc3NC2=O)CC1` [Example 98, (L)-1-[1,4′]Bipiperidinyl-1′-yl-2-[(1H-imidazol-4-ylmethyl)-amino]-4-[4-(2-oxo-1,4-dihydro-2H-quinazolin-3-yl)-piperidin-1-yl]-butane-1,4-dione] was tested, and the IC50 was over 1000 nM. `O=C(N[C@@H](CC(=O)N1CCC(N2Cc3ccccc3NC2=O)CC1)C(=O)N1CCC(N2CCCCC2)CC1)c1ccc(O)cc1` [Example 100, (L)-N-{1-([1,4′]Bipiperidinyl-1′-carbonyl)-3-oxo-3-[4-(2-oxo-1,4-dihydro-2H-quinazolin-3-yl)-piperidin-1-yl]-propyl}-4-hydroxy-benzamide] gave an IC50 of 100 to 1000 nM. `O=C(N[C@@H](CC(=O)N1CCC(N2Cc3ccccc3NC2=O)CC1)C(=O)N1CCC(N2CCCCC2)CC1)c1cc[nH]n1` [Example 101, (L)-1H-Pyrazole-3-carboxylic acid{1-([1,4′]bipiperidinyl-1′-carbonyl)-3-oxo-3-[4-(2-oxo-1,4-dihydro-2H-quinazolin-3-yl)-piperidin-1-yl]-propyl}-amide] gave an IC50 of over 1000 nM. `O=C(N[C@@H](CC(=O)N1CCC(N2Cc3ccccc3NC2=O)CC1)C(=O)N1CCC(N2CCCCC2)CC1)c1ccc(F)c(F)c1` [Example 102] was tested, and the IC50 was 100 to 1000 nM. `O=C(N[C@@H](CC(=O)N1CCC(N2Cc3ccccc3NC2=O)CC1)C(=O)N1CCC(N2CCCCC2)CC1)C1CC1` [Example 103] was tested, and the IC50 was 100 to 1000 nM. In the case of `O=C(N[C@@H](CC(=O)N1CCC(N2Cc3ccccc3NC2=O)CC1)C(=O)N1CCC(N2CCCCC2)CC1)[C@@H]1C[C@H]1c1ccccc1` [Example 104], the IC50 is reported as 100 to 1000 nM. Work on `O=C(N[C@@H](CC(=O)N1CCC(N2Cc3ccccc3NC2=O)CC1)C(=O)N1CCC(N2CCCCC2)CC1)c1cccc(F)c1` [Example 105] yielded an IC50 of 100 to 1000 nM. `O=C(Cc1ccccc1)N[C@@H](CC(=O)N1CCC(N2Cc3ccccc3NC2=O)CC1)C(=O)N1CCC(N2CCCCC2)CC1` [Example 106] showed an IC50 of 100 to 1000 nM. In the case of `O=C(N[C@@H](CC(=O)N1CCC(N2Cc3ccccc3NC2=O)CC1)C(=O)N1CCC(N2CCCCC2)CC1)c1cc(C(F)(F)F)cc(C(F)(F)F)c1` [Example 107], the IC50 is reported as 100 to 1000 nM. With `O=C(N[C@@H](CC(=O)N1CCC(N2Cc3ccccc3NC2=O)CC1)C(=O)N1CCC(N2CCCCC2)CC1)c1cc(Cl)cc(Cl)c1` [Example 108] the IC50 was 100 to 1000 nM. Compound `COc1ccc(CC(=O)N[C@@H](CC(=O)N2CCC(N3Cc4ccccc4NC3=O)CC2)C(=O)N2CCC(N3CCCCC3)CC2)cc1OC` [Example 109] has an IC50 of 100 to 1000 nM. `O=C(N[C@@H](CC(=O)N1CCC(N2Cc3ccccc3NC2=O)CC1)C(=O)N1CCC(N2CCCCC2)CC1)c1ccccc1` [Example 110] gave an IC50 of 100 to 1000 nM. In the case of `O=C(N[C@@H](CC(=O)N1CCC(N2Cc3ccccc3NC2=O)CC1)C(=O)N1CCC(N2CCCCC2)CC1)c1ccc(Cl)c(Cl)c1` [Example 111], the IC50 is reported as 100 to 1000 nM. For `O=C(COc1ccc(Cl)cc1)N[C@@H](CC(=O)N1CCC(N2Cc3ccccc3NC2=O)CC1)C(=O)N1CCC(N2CCCCC2)CC1` [Example 112], the IC50 was 100 to 1000 nM. Compound `O=C(N[C@@H](CC(=O)N1CCC(N2Cc3ccccc3NC2=O)CC1)C(=O)N1CCC(N2CCCCC2)CC1)c1cccc([N+](=O)[O-])c1` [Example 113] has an IC50 of 100 to 1000 nM. `O=C(N[C@@H](CC(=O)N1CCC(N2Cc3ccccc3NC2=O)CC1)C(=O)N1CCC(N2CCCCC2)CC1)c1ccc2c(c1)OCO2` [Example 114] showed an IC50 of 100 to 1000 nM. For `O=C(C[C@H](NC(=O)n1c2ccccc2c2ccccc21)C(=O)N1CCC(N2CCCCC2)CC1)N1CCC(N2Cc3ccccc3NC2=O)CC1` [Example 115], the IC50 was 100 to 1000 nM. Compound `O=C(N[C@@H](CC(=O)N1CCC(N2Cc3ccccc3NC2=O)CC1)C(=O)N1CCC(N2CCCCC2)CC1)c1cccs1` [Example 116] has an IC50 of 100 to 1000 nM. Compound `O=C(Cc1cccs1)N[C@@H](CC(=O)N1CCC(N2Cc3ccccc3NC2=O)CC1)C(=O)N1CCC(N2CCCCC2)CC1` [Example 117] has an IC50 of 100 to 1000 nM. Work on `O=C(OCc1ccccc1C(=O)N[C@@H](CC(=O)N1CCC(N2Cc3ccccc3NC2=O)CC1)C(=O)N1CCC(N2CCCCC2)CC1)c1ccccc1` [Example 118] yielded an IC50 of 100 to 1000 nM. `O=C(N[C@@H](CC(=O)N1CCC(N2Cc3ccccc3NC2=O)CC1)C(=O)N1CCC(N2CCCCC2)CC1)c1ccc(Br)cc1` [Example 119] showed an IC50 of 100 to 1000 nM. In the case of `CC(=O)N[C@@H](CC(=O)N1CCC(N2Cc3ccccc3NC2=O)CC1)C(=O)N1CCC(N2CCCCC2)CC1` [Example 120], the IC50 is reported as 100 to 1000 nM.
